Inconclusive results and toxic doses are left out. The calls were made as follows: active = survival T/C of 150% or more; inactive = T/C below 125% in these data.
Tested on: CD2F1 mice, L1210 leukemia ip, survival T/C
Assay: NCI In Vivo Anticancer Drug Screen. Data for tumor model L1210 Leukemia (intraperitoneal) in CD2F1 (CDF1) mice
Details: endpoint: mean survival time, higher = longer survival
In short: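 Activity against a transplanted murine tumor was judged by comparing the compound group with a vehicle group. The outcome in the treated animals was divided by that in the controls.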

[1] = dose: 1.0 mg/kg/injection, schedule: Q01DX009 (ip), vehicle: saline
[2] = dose: 2.0 mg/kg/injection, schedule: Q01DX009 (ip), vehicle: saline
[3] = dose: 100.0 mg/kg/injection, schedule: Q04DX003 (ip), vehicle: saline with Tween-80
[4] = dose: 200.0 mg/kg/injection, schedule: Q04DX003 (ip), vehicle: saline with Tween-80
[5] = dose: 400.0 mg/kg/injection, schedule: Q04DX003 (ip), vehicle: saline with Tween-80
[6] = dose: 50.0 mg/kg/injection, schedule: Q04DX002 (ip), vehicle: saline with Tween-80
[7] = dose: 100.0 mg/kg/injection, schedule: Q04DX002 (ip), vehicle: saline with Tween-80
[8] = dose: 200.0 mg/kg/injection, schedule: Q04DX002 (ip), vehicle: saline with Tween-80
[9] = dose: 100.0 mg/kg/injection, schedule: Q04DX003 (ip), vehicle: saline
[10] = dose: 200.0 mg/kg/injection, schedule: Q04DX003 (ip), vehicle: saline
[11] = dose: 100.0 mg/kg/injection, schedule: Q01DX009 (ip), vehicle: saline with Tween-80
[12] = dose: 100.0 mg/kg/injection, schedule: Q01DX001 (ip), vehicle: saline
[13] = dose: 100.0 mg/kg/injection, schedule: Q01DX001 (ip), vehicle: saline with Tween-80
[14] = dose: 200.0 mg/kg/injection, schedule: Q01DX001 (ip), vehicle: saline with Tween-80
[15] = dose: 400.0 mg/kg/injection, schedule: Q01DX001 (ip), vehicle: saline with Tween-80

Measured: T/C

CC(=O)Nc1cc(N(CCOS(C)(=O)=O)CCOS(C)(=O)=O)ccc1N=O
inactive: dose: 0.25 mg/kg/injection, schedule: Q01DX009 (ip), vehicle: saline 117 % of control | dose: 0.5 mg/kg/injection, schedule: Q01DX009 (ip), vehicle: saline 116 % of control | [1] 95 % of control | dose: 1.5 mg/kg/injection, schedule: Q04DX003 (ip), vehicle: saline 120 % of control | [2] 95 % of control | dose: 3.0 mg/kg/injection, schedule: Q04DX003 (ip), vehicle: saline 115 % of control | dose: 6.0 mg/kg/injection, schedule: Q04DX003 (ip), vehicle: saline 107 % of control

CNc1ccc(O)cc1
inactive: dose: 5.0 mg/kg/injection, schedule: Q01DX009 (ip), vehicle: saline sonified 101 % of control | dose: 5.0 mg/kg/injection, schedule: Q04DX003 (ip), vehicle: saline 91 % of control | dose: 10.0 mg/kg/injection, schedule: Q01DX009 (ip), vehicle: saline sonified 103 % of control | dose: 10.0 mg/kg/injection, schedule: Q04DX003 (ip), vehicle: saline 97 % of control | dose: 20.0 mg/kg/injection, schedule: Q01DX009 (ip), vehicle: saline sonified 104 % of control | dose: 20.0 mg/kg/injection, schedule: Q04DX003 (ip), vehicle: saline 101 % of control

O=C(N/N=C\c1ccc([N+](=O)[O-])cc1)c1ccccc1
inactive: [3] 94 % of control | [4] 94 % of control | [5] 92 % of control

Cc1nn(-c2ccccc2)c2c1C(=O)NC2Cc1ccccc1 (stereo not given)
inactive: [6] 103 % of control | [7] 100 % of control | [8] 100 % of control

CCOC(=O)c1cnc2c(cnn2CC)c1NN=C(C)C
inactive: [9] 105 % of control | [10] 105 % of control

CCN(C(=O)Nc1ccc(OC)cc1)c1ccccc1
inactive: [3] 98 % of control | [4] 95 % of control

CN(C)CCCN1c2ccc(O)cc2Sc2ccc(Cl)cc21
inactive: dose: 25.0 mg/kg/injection, schedule: Q01DX009 (ip), vehicle: saline with Tween-80 90 % of control | dose: 50.0 mg/kg/injection, schedule: Q01DX009 (ip), vehicle: saline with Tween-80 96 % of control | [11] 107 % of control

COc1cc(C(=O)NCCCCCC(=O)O)cc(OC)c1OC
inactive: [7] 91 % of control | [8] 95 % of control | dose: 400.0 mg/kg/injection, schedule: Q04DX002 (ip), vehicle: saline with Tween-80 88 % of control

CC(=O)OC1CCC2C3CCC4=C(Cl)C(=O)CCC4C3CCC12C (stereo not given)
inactive: dose: 100.0 mg/kg/injection, schedule: Q04DX003 (sc), vehicle: steriod suspending solution 98 % of control | dose: 200.0 mg/kg/injection, schedule: Q04DX003 (sc), vehicle: steriod suspending solution 97 % of control | dose: 400.0 mg/kg/injection, schedule: Q04DX003 (sc), vehicle: steriod suspending solution 106 % of control

CC(C)(C)c1cc(CN2CCCC(O)C2)c(O)c(-c2ccccc2)c1 (stereo not given)
inactive: dose: 50.0 mg/kg/injection, schedule: Q01DX009 (ip), vehicle: saline 107 % of control | dose: 100.0 mg/kg/injection, schedule: Q01DX009 (ip), vehicle: saline 104 % of control

CCOC(=O)C1=C(C)NC(C)=C(C(=O)OCC)C1c1ccccc1Cl
inactive: dose: 12.5 mg/kg/injection, schedule: Q01DX009 (ip), vehicle: acetone 102 % of control | dose: 25.0 mg/kg/injection, schedule: Q01DX009 (ip), vehicle: acetone 100 % of control | dose: 50.0 mg/kg/injection, schedule: Q01DX009 (ip), vehicle: acetone 104 % of control

CC1(C)CC(=O)C(C)(C)C(=O)C1
inactive: [12] 100 % of control

O=C(O)c1nn2c(=O)[nH]c3ccccc3c2c1C(=O)O
inactive: dose: 12.5 mg/kg/injection, schedule: Q04DX002 (ip), vehicle: saline with Tween-80 90 % of control | dose: 25.0 mg/kg/injection, schedule: Q04DX002 (ip), vehicle: saline with Tween-80 94 % of control | [6] 87 % of control

CC1(C)OC2CC3CC(OC3=O)C2O1 (stereo not given)
inactive: [13] 107 % of control | [14] 97 % of control | [15] 107 % of control

CN(Cc1ccccc1)c1ccc2nc(N)nc(N)c2c1
inactive: [3] 103 % of control | [4] 110 % of control

CN(C)c1ccc(N=Nc2nccs2)cc1
inactive: dose: 18.7 mg/kg/injection, schedule: Q04DX003 (ip), vehicle: saline with Tween-80 86 % of control | dose: 37.5 mg/kg/injection, schedule: Q04DX003 (ip), vehicle: saline with Tween-80 102 % of control | dose: 75.0 mg/kg/injection, schedule: Q04DX003 (ip), vehicle: saline with Tween-80 96 % of control

CC(=O)[O][Hg][CH]1CCCCC1O (stereo not given)
inactive: dose: 3.13 mg/kg/injection, schedule: Q01DX009 (ip), vehicle: saline + alcohol 98 % of control | dose: 6.25 mg/kg/injection, schedule: Q01DX009 (ip), vehicle: saline + alcohol 108 % of control

Cc1ccc[n+](CC(O)c2ccc(C(O)C[n+]3cccc(C)c3)cc2)c1 (stereo not given)
inactive: dose: 0.08 mg/kg/injection, schedule: Q04DX003 (ip), vehicle: saline 101 % of control | dose: 0.15 mg/kg/injection, schedule: Q04DX003 (ip), vehicle: saline 101 % of control

O=C(O)C1(O)C[C@@H](O)C(O)[C@H](O)C1 (stereo not given in full)
inactive: [12] 102 % of control | [9] 108 % of control | dose: 200.0 mg/kg/injection, schedule: Q01DX001 (ip), vehicle: saline 96 % of control | [10] 98 % of control | dose: 400.0 mg/kg/injection, schedule: Q01DX001 (ip), vehicle: saline 100 % of control | dose: 400.0 mg/kg/injection, schedule: Q04DX003 (ip), vehicle: saline 102 % of control

Cc1cc(C)c(NC(=O)c2cccc(Cl)c2)c(C)c1
inactive: [11] 104 % of control | [3] 94 % of control | dose: 200.0 mg/kg/injection, schedule: Q01DX009 (ip), vehicle: saline with Tween-80 98 % of control | [4] 96 % of control | dose: 400.0 mg/kg/injection, schedule: Q01DX009 (ip), vehicle: saline with Tween-80 105 % of control | [5] 88 % of control

CC(C)N(C(=S)S)C(C)C
inactive: [3] 101 % of control | [4] 100 % of control | [5] 92 % of control

O=C1NC(=O)C2(CCN(Cc3ccccc3)CC2)C(=O)N1
inactive: dose: 75.0 mg/kg/injection, schedule: Q01DX001 (ip), vehicle: saline 96 % of control | dose: 150.0 mg/kg/injection, schedule: Q01DX001 (ip), vehicle: saline 98 % of control | dose: 300.0 mg/kg/injection, schedule: Q01DX001 (ip), vehicle: saline 96 % of control

CC(=O)CCS(=O)(=O)O
inactive: [13] 92 % of control | [14] 95 % of control | [15] 88 % of control

O=C(Nc1cccc(C2=NCCN2)c1)c1ccc(C(=O)Nc2cccc(C3=NCCN3)c2)c(Cl)c1
inactive: [1] 95 % of control | [2] 92 % of control | dose: 4.0 mg/kg/injection, schedule: Q01DX009 (ip), vehicle: saline 98 % of control | dose: 8.0 mg/kg/injection, schedule: Q01DX009 (ip), vehicle: saline 113 % of control

CCN(CC)CCCC(C)NC(C)CCCN(CC)CC (stereo not given)
inactive: dose: 25.0 mg/kg/injection, schedule: Q01DX009 (ip), vehicle: Klucel (hydroxypropylcellulose) (HPC) 95 % of control | dose: 50.0 mg/kg/injection, schedule: Q01DX009 (ip), vehicle: Klucel (hydroxypropylcellulose) (HPC) 95 % of control
